Measured values as given in patent US20250051762A1, “PLATFORM USING DNA-ENCODED SMALL MOLECULE LIBRARIES AND RNA SELECTION TO DESIGN SMALL MOLECULES THAT TARGET RNA” (University of Florida Research Foundation, Incorporated, priority 2021, published 2025).

Legend:
miR-23a = assay: RT-qPCR of mature miR-23a in MDA-MB-231 cells; type: cell-based, human
Experimental: Cell lines. Compounds were tested in MDA-MB-231 TNBC cells (HTB-26, ATCC), LNCaP metastatic prostate cancer cells (gifted from Junli Luo lab), MCF-7 (HTB-22, ATCC) breast cancer cells, HeLa cervical adenocarcinoma cells (CCL-2, ATCC), and MCF-10a, a model of healthy breast epithelial cells (CRL-10317, ATCC).
Cell culture and compound treatment. All cells were maintained at 37° C. with 5% CO2. MDA-MB-231 and LNCaP cells were cultured in RPMI 1640 medium with L-glutamine & 25 mM HEPES (Corning) supplemented with 10% (v/v) fetal bovine serum (FBS; Sigma) and 1× (v/v) Antibiotic-Antimycotic solution (Corning). MCF-7 and HeLa cells were cultured in DMEM medium with 4.5 g/L glucose (Corning), supplemented with 10% FBS, 1× (v/v) Glutagro (Corning), and 1× (v/v) Antibiotic-Antimycotic solution. […]
Analysis of mRNA abundance: Each cell line was grown as a monolayer in 12- or 24-well plates and treated as described in “Cell culture and compound treatment”. […] Relative abundance of mature miRNAs was calculated by normalizing to RNU6, and relative abundance for pri-miRNAs and mRNAs was calculated by normalizing to 18S ribosomal RNA, using the AAC, method. […]

MDA-MB-231 cells = assay: Global proteomics profiling by LC-MS/MS in MDA-MB-231 cells; type: cell-based, human
Experimental: Global proteomics profiling using LC-MS/MS: Treated cell pellets were resuspended in 1×PBS, lysed by sonication, and protein concentration was determined by using a Bradford assay (Bio-Rad). Samples (30 μg) were denatured in 6 M urea in 50 mM NH4HCO3, pH 8, reduced for 30 min with 10 mM TCEP, and alkylated for 30 min in the dark with 25 mM iodoacetamide. Samples were diluted to 2 M urea with 50 mM NH4HCO3, pH 8, and the proteins were digested with trypsin (1 μL of 0.5 μg/μL) in the presence of 1 mM CaCl2) for 12 h at 37° C. The samples were acidified by adding acetic acid to a final concentration of 5% (v/v). After desalting the samples over a self-packed C18 spin column, they were dried and analyzed by LC-MS/MS (see below). The resulting MS data were processed with MaxQuant as described below.
LC-MS/MS analysis: Peptides were dissolved in water containing 0.1% formic acid (FA) and analyzed using an EASY-nLC 1200 nano-UHPLC connected to a Q Exactive HF-X Quadrupole-Orbitrap mass spectrometer (Thermo Scientific). A 50 cm long, 75 μm i.d. chromatography column packed with ReproSil-Pur 120 C18-AQ 2.4 μm beads (Dr. Maisch GmbH) and capped by a 5 μm tip was used. Water with 0.1% FA in water (Buffer A) and 90% acetonitrile (MeCN): 10% water with 0.1% FA (Buffer B) were used as liquid chromatography solvents. A flow rate of 300 nL/min over a 240 min linear gradient (5-35% Buffer B) at 65° C. was used to clute peptides into the mass spectrometer. Data-dependent acquisition (top-20, NCE 28, R=7,500) after full MS scan (R=60,000, m/z 400-1,300) with a dynamic exclusion of 10 seconds was performed. Peptide match to prefer and isotope exclusion were selected and enabled.
MaxQuant analysis: The MaxQuant software (13) (V1.6.1.0) was used to analyzed the MS data and searched against the human proteome (Uniprot) and a common list of contaminants (included in MaxQuant). Peptide search tolerance was set to 20 ppm for the first search and 10 ppm for the main search while 0.02 Da was used for the fragment mass tolerance. The false discovery rate (FDR) for peptides, proteins and sites identification was set to 1%. Peptide length was set to at least 6 amino acids and peptide re-quantification was enabled. Label-free quantification (MaxLFQ) and “match between runs” were activated. Number of peptides per protein was set to ≥2. Searched modifications were methionine oxidation (variable modification) and carbamidomethylation of cysteines (fixed modification).
TargetScan analysis: TargetScanHuman v7.2 was used to predict downstream protein targets of miR-27a-3p (n=1421), miR-23a-3p (n=1342) and miR-24-3p (n=761) containing conserved sites, all proteins with a context score≤0 were included to the analysis per TargetScan recommendation. Approximately 15% of miR-27a-3p targets (220/1421), ˜18% of miR-23a-3p targets (247/1342), and ˜16% of miR-24-3p targets (122/761) were detectable in the global proteomics analysis. […] Targets of miR-23a-3p and miR-24-3p were used as comparison as the two miRNAs are expressed at similar levels as miR-27a-3p in MDA-MB-231 cells and are located in the same cluster. P values between distributions were calculated using a two-tailed Kolmogorov-Smirnov test.

[1] = 100 nM, 3,127 detectable proteins, FDR <5%
[2] = treated vs. vehicle, relative to all proteins

C#CCN(CC(N)=O)C(=O)C[C@H](Cc1c[nH]c2ccccc12)NC(=O)[C@@H]1C[C@H](NC(=O)Cn2c(=O)[nH]c3ccccc3c2=O)CN1 [Compound 9]
effect on levels of mature miR-23a (miR-23a): no effect | number of proteins significantly downregulated (MDA-MB-231 cells; [1]): five | number of proteins significantly upregulated (MDA-MB-231 cells; [1]): 15 | upregulated proteins that are putative direct targets of miR-27a (MDA-MB-231 cells; 100 nM, of the 15 upregulated, per TargetScan): Eleven | cumulative distribution of fold change of miR-23a-3p targets (MDA-MB-231 cells; [2]): no significant change | cumulative distribution of fold change of miR-24-3p targets (MDA-MB-231 cells; [2]): no significant change | cumulative distribution of fold change of miR-27a-3p targets (MDA-MB-231 cells; [2]): significant upregulation
